Measured values published in ChEMBL document CHEMBL4219144, “Novel 6-aryl substituted 4-pyrrolidineaminoquinazoline derivatives as potent phosphoinositide 3-kinase delta (PI3Kδ) inhibitors” (Bioorg Med Chem, 2018).

How the values were obtained:
Homo sapiens [1] = organism: Homo sapiens; assay: Selectivity ratio of IC50 for PI3K p110gamma (unknown origin) to IC50 for PI3K p110delta (unknown origin)
Rattus norvegicus [2] = assay: Clearance in Sprague-Dawley rat at 10 mg/kg, po by LC-MS/MS analysis; assay type: ADME, organism-based; details: in vivo
[3] = molecular target: Phosphatidylinositol 4,5-bisphosphate 3-kinase catalytic subunit gamma isoform (Homo sapiens, UniProt P48736); assay: Inhibition of PI3K p110gamma (unknown origin) using lipid substrate after 40 mins by kinase-Glo assay
[4] = molecular target: T1, Phosphatidylinositol 4,5-bisphosphate 3-kinase catalytic subunit delta isoform (Homo sapiens) (UniProt O00329); assay: Inhibition of PI3K p110delta (unknown origin) at 100 nM using lipid substrate after 40 mins by kinase-Glo assay relative to control
T1 sequence (whole entry): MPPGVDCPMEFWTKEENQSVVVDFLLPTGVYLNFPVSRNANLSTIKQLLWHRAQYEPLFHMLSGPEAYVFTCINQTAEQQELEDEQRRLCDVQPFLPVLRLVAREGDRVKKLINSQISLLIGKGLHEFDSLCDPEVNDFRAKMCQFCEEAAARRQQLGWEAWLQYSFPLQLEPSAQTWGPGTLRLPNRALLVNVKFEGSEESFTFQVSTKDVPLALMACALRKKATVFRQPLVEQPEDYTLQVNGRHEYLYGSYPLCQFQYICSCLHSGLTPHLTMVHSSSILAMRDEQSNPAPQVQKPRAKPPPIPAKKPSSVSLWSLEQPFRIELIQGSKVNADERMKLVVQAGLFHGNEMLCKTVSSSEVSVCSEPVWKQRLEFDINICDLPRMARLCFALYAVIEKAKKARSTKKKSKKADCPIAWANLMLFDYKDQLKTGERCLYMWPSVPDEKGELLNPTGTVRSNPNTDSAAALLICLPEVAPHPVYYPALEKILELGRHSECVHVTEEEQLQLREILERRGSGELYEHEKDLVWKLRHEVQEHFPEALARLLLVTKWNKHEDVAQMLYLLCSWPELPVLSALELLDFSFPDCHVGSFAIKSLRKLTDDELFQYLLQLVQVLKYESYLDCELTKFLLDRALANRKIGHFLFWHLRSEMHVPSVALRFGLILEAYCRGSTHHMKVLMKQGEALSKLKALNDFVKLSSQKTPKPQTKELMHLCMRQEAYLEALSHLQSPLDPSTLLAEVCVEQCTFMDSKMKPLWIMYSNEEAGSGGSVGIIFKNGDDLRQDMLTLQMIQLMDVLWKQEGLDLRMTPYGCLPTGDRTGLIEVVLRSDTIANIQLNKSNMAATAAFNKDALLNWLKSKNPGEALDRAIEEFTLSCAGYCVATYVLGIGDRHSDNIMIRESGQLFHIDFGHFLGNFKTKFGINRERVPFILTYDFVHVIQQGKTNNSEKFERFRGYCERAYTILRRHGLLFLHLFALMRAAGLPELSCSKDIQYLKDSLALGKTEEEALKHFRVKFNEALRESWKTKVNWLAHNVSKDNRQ

[5] = molecular target: T2, Phosphatidylinositol 4,5-bisphosphate 3-kinase catalytic subunit delta isoform (Homo sapiens, UniProt O00329); assay: Inhibition of PI3K p110delta (unknown origin) using lipid substrate after 40 mins by kinase-Glo assay
T2 sequence (O00329 whole entry): T1 sequence (whole entry)

Raji = assay: cells; assay type: functional, cell-based; details: Homo sapiens, 72 h
Description: Antiproliferative activity against human Raji cells after 72 hrs by MTT assay

SU-DHL-6 = assay: Antiproliferative activity against human SUDHL6 cells after 72 hrs by CCK8 assay; assay type: functional, cell-based; details: SU-DHL-6, 72 h
[6] = molecular target: Phosphatidylinositol 4,5-bisphosphate 3-kinase catalytic subunit beta isoform (Homo sapiens, UniProt P42338); assay: Inhibition of PI3K p110beta (unknown origin) using lipid substrate after 40 mins by kinase-Glo assay
RPMI-8226 = assay: Antiproliferative activity against human RPMI8226 cells after 72 hrs by MTT assay; assay type: functional, cell-based; details: RPMI-8226, 72 h
[7] = AUC in Sprague-Dawley rat at 10 mg/kg, po by LC-MS/MS analysis; assay type: ADME, organism-based; details: in vivo
Homo sapiens [8] = organism: Homo sapiens; assay: Selectivity ratio of IC50 for PI3K p110alpha (unknown origin) to IC50 for PI3K p110delta (unknown origin)
Rattus norvegicus [9] = assay: Half life in Sprague-Dawley rat at 10 mg/kg, po by LC-MS/MS analysis; assay type: ADME, organism-based; details: in vivo
Ramos = assay: cells; assay type: functional, cell-based; details: Homo sapiens, 72 h
Description: Antiproliferative activity against human Ramos cells after 72 hrs by MTT assay

Homo sapiens [10] = organism: Homo sapiens; assay: Selectivity ratio of IC50 for PI3K p110beta (unknown origin) to IC50 for PI3K p110delta (unknown origin)
[11] = Cmax in Sprague-Dawley rat at 10 mg/kg, po by LC-MS/MS analysis; assay type: ADME, organism-based; set-up: dose 10 mg/kg, route oral; details: in vivo
[12] = molecular target: Phosphatidylinositol 4,5-bisphosphate 3-kinase catalytic subunit alpha isoform (Homo sapiens, UniProt P42336); assay: Inhibition of PI3K p110alpha (unknown origin) using lipid substrate after 40 mins by kinase-Glo assay
Rattus norvegicus [13] = assay: Apparent volume of distribution in Sprague-Dawley rat at 10 mg/kg, po by LC-MS/MS analysis; assay type: ADME, organism-based; details: in vivo
[14] = molecular target: T2, Phosphatidylinositol 4,5-bisphosphate 3-kinase catalytic subunit delta isoform; assay: Inhibition of PI3Kdelta (unknown origin)
[15] = AUC in Sprague-Dawley rat at 3 mg/kg, po by LC-MS/MS analysis; assay type: ADME, organism-based; details: in vivo
[16] = Cmax in Sprague-Dawley rat at 3 mg/kg, po by LC-MS/MS analysis; assay type: ADME, organism-based; set-up: dose 3 mg/kg, route oral; details: in vivo
[17] = Oral bioavailability in Sprague-Dawley rat at 3 mg/kg by LC-MS/MS analysis; assay type: ADME, organism-based; details: in vivo

Sequence of Phosphatidylinositol 4,5-bisphosphate 3-kinase catalytic subunit gamma isoform (P48736 whole entry, canonical isoform): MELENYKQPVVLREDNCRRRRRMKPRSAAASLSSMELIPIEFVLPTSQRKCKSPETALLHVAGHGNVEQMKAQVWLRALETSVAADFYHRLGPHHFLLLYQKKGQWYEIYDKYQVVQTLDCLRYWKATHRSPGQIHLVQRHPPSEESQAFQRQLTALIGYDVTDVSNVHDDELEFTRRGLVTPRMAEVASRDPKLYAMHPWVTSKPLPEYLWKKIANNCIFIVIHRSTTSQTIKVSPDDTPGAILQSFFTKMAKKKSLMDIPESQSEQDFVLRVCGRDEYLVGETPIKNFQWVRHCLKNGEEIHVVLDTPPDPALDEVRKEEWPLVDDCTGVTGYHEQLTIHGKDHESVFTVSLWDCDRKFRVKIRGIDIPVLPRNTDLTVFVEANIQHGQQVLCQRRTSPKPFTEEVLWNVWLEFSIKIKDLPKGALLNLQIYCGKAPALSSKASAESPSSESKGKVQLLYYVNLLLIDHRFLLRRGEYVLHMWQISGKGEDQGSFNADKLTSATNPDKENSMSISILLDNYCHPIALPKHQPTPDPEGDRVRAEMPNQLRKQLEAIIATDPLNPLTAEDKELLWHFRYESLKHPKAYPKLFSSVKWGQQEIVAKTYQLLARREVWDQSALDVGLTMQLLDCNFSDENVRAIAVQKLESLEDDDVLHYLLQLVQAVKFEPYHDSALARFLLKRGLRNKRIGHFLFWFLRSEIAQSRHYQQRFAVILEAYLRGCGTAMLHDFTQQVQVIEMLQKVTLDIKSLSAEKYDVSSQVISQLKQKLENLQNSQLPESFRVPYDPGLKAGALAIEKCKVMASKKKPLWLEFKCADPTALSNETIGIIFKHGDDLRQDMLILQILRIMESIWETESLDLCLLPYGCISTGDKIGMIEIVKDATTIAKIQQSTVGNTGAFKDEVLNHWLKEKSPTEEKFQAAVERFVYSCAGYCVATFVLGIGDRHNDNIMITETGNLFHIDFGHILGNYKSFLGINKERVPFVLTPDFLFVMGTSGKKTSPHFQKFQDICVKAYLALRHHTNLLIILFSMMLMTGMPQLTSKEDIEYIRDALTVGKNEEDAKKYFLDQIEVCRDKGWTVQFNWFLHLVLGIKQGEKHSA
Sequence of Phosphatidylinositol 4,5-bisphosphate 3-kinase catalytic subunit beta isoform (P42338 whole entry, canonical isoform): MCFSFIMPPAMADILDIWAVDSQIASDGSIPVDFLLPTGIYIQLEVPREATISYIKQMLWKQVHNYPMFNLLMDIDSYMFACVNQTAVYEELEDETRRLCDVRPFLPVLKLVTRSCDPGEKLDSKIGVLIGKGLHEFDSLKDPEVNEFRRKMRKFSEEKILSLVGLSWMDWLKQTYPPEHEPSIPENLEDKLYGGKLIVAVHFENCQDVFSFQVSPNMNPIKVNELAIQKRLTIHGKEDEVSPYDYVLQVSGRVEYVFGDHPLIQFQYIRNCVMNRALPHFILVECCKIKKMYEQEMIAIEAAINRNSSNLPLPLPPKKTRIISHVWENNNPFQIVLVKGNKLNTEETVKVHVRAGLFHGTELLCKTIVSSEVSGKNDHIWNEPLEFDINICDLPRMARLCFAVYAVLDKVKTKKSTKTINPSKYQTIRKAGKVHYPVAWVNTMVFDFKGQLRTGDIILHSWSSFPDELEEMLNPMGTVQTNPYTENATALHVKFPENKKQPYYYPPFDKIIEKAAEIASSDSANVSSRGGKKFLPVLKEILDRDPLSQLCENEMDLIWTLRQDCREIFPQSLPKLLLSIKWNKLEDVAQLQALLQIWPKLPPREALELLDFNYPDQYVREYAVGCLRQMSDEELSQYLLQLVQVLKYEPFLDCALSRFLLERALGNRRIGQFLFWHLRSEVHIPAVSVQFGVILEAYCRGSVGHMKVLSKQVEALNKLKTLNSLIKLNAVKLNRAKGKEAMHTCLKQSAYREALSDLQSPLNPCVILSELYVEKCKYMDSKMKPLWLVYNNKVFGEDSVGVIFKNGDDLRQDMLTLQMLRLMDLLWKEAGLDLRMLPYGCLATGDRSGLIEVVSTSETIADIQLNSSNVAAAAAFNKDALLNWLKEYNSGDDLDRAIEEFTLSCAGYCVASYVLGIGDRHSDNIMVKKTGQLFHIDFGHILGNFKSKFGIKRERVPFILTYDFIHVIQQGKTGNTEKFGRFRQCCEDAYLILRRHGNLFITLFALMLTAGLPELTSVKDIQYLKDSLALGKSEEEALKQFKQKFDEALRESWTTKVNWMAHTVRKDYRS
Sequence of Phosphatidylinositol 4,5-bisphosphate 3-kinase catalytic subunit alpha isoform (P42336 whole entry, canonical isoform): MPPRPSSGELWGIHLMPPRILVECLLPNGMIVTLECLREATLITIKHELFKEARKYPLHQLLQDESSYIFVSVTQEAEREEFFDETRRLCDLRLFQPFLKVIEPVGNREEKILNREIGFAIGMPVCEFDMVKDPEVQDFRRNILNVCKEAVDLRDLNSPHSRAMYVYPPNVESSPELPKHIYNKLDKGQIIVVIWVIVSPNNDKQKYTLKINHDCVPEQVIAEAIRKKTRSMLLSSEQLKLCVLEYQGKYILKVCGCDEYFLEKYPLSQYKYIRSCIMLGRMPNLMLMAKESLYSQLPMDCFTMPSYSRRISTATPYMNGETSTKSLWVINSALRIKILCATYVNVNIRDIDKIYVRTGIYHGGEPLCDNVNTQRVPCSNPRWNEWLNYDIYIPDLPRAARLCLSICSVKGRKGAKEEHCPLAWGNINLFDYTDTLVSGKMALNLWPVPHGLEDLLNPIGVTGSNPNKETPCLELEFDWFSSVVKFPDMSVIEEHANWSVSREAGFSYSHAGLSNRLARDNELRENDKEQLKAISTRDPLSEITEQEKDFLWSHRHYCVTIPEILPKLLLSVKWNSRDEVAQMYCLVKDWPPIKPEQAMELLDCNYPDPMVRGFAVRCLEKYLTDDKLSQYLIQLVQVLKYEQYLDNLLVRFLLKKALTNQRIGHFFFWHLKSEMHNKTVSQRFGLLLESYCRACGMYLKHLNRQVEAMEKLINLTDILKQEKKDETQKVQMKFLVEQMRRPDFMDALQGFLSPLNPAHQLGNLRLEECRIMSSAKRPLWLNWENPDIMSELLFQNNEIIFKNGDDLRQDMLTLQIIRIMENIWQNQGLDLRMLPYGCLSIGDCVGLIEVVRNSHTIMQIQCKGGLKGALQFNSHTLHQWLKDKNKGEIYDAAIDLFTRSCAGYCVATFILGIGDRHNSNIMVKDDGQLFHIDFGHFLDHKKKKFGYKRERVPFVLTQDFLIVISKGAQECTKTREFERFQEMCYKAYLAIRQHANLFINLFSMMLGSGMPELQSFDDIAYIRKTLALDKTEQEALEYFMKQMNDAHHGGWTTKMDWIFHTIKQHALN

| SMILES | inhibition [4] [%] | IC50 [5] [µM] | further results |
| --- | --- | --- | --- |
| COc1ncc(-c2ccc3ncnc(N[C@H]4CCN(C(=O)C5CCOCC5)C4)c3c2)cc1C#N | 99 | 0.0027 | Ratio IC50 (Homo sapiens [1]): 65; CL (Rattus norvegicus [2]): 40 mL/min/kg; IC50 [3]: 0.174 µM; IC50 (Raji): > 10 µM; IC50 (SU-DHL-6): 4.55 µM; IC50 [6]: 0.264 µM; IC50 (RPMI-8226): 4.34 µM; AUC [7]: 524 ng·h/mL; Ratio IC50 (Homo sapiens [8]): 10; t1/2 (Rattus norvegicus [9]): 2.99 h; IC50 (Ramos): 0.57 µM; Ratio IC50 (Homo sapiens [10]): 100; Cmax [11]: 664 ng/mL; IC50 [12]: 0.0256 µM; Vz (Rattus norvegicus [13]): 113 L/kg |
| COc1ccc(-c2ccc3ncnc(N[C@H]4CCN(C(=O)C(C)(C)C)C4)c3c2)cn1 | 79 |  |  |
| COc1ccc(-c2ccc3ncnc(N[C@H]4CCNC4)c3c2)cn1 | 38 |  |  |
| COc1ccc(-c2ccc3ncnc(N[C@H]4CCN(C(=O)C5CCC5)C4)c3c2)cn1 | 98 | 0.0052 |  |
| COc1ccc(-c2ccc3ncnc(N[C@H]4CCN(C(=O)C5CC5)C4)c3c2)cn1 | 97 | 0.0045 | IC50 [3]: 0.224 µM; IC50 (Raji): 2.13 µM; IC50 (SU-DHL-6): 0.5 µM; IC50 [6]: 0.22 µM; IC50 (RPMI-8226): 1.46 µM; IC50 (Ramos): 0.52 µM; IC50 [12]: 0.0254 µM |
| NC(=O)c1cc(-c2ccc3ncnc(-c4cccc(C(=O)NCCN5CCOCC5)c4)c3c2)ccc1Cl |  |  | IC50 [14]: 0.017 µM |
| COc1ccc(-c2ccc3ncnc(N[C@H]4CCN(S(=O)(=O)C5CC5)C4)c3c2)cn1 | 83 | 0.0135 |  |
| CC(C)(C)OC(=O)N1CC[C@H](Nc2ncnc3ccc(-c4ccc(N)nc4)cc23)C1 | 17 |  |  |
| COc1ccc(-c2ccc3ncnc(N[C@H]4CCN(C(=O)C5CC5)C4)c3c2)cc1C(N)=O | 84 |  |  |
| O=C(C1CC1)N1CC[C@H](Nc2ncnc3ccc(-c4ccc(OC(F)(F)F)cc4)cc23)C1 | 13 |  |  |
| COc1ccc(-c2ccc3ncnc(N[C@H]4CCN(C(=O)C5CCOCC5)C4)c3c2)cn1 | 97 | 0.0034 |  |
| COc1ccc(-c2ccc3ncnc(N[C@H]4CCN(C(=O)OC(C)(C)C)C4)c3c2)cn1 | 91 | 0.0081 |  |
| COc1ccc(-c2ccc3ncnc(N[C@H]4CCN(C(=O)CC(C)(C)C)C4)c3c2)cn1 | 94 | 0.0046 |  |
| COc1ccc(-c2ccc3ncnc(N[C@H]4CCN(C(=O)C5CCCC5)C4)c3c2)cn1 | 97 | 0.0044 |  |
| COc1ccc(-c2ccc3ncnc(N[C@H]4CCN(C(=O)OC(C)(C)C)C4)c3c2)cc1C(N)=O | 74 |  |  |
| COc1ccc(-c2ccc3ncnc(N[C@H]4CCN(C(=O)C5CCOCC5)C4)c3c2)cc1C(N)=O | 92 | 0.0078 |  |
| COc1ccc(-c2ccc3ncnc(N[C@@H]4CCN(C(=O)C5CCOCC5)C4)c3c2)cn1 | 46 |  |  |

| SMILES | inhibition [4] [%] | IC50 [5] [µM] | further results |
| --- | --- | --- | --- |
| O=C(CCCCCCC(=O)Nc1ccccc1)NO [VORINOSTAT] |  |  | IC50 (RPMI-8226): 0.66 µM |
| COc1ncc(-c2ccc3ncnc(N[C@H]4CCN(C(=O)OC(C)(C)C)C4)c3c2)cc1C#N | 88 | 0.0187 |  |
| COc1ccc(-c2ccc3ncnc(N[C@H]4CCN(C(C)=O)C4)c3c2)cn1 | 79 |  |  |
| COc1ccc(-c2ccc3ncnc(N[C@H]4CCN(C(=O)c5ccco5)C4)c3c2)cn1 | 97 | 0.0055 |  |
| COc1ccc(-c2ccc3ncnc(N[C@H]4CCN(C(=O)C5CCCCC5)C4)c3c2)cn1 | 85 | 0.0029 |  |
| COc1cc(C(N)=O)cc(-c2ccc3ncnc(N[C@H]4CCN(C(=O)OC(C)(C)C)C4)c3c2)c1 | 82 |  |  |
| COc1ncc(-c2ccc3ncnc(N[C@H]4CCN(C(=O)C5CCOCC5)C4)c3c2)cc1[N+](=O)[O-] | 99 | 0.0031 | IC50 [3]: 0.199 µM; IC50 (Raji): 1.48 µM; IC50 (SU-DHL-6): 5.97 µM; IC50 [6]: 0.585 µM; IC50 (RPMI-8226): 2.71 µM; IC50 (Ramos): 0.78 µM; IC50 [12]: 0.0267 µM |
| CC(C)(C)OC(=O)N1CC[C@H](Nc2ncnc3ccc(-c4cnc(N)nc4)cc23)C1 | 44 |  |  |
| COc1ccc(-c2ccc3ncnc(N[C@H]4CCN(C(=O)c5ccccc5)C4)c3c2)cn1 | 87 | 0.003 |  |
| COc1ncc(-c2ccc3ncnc(N[C@H]4CCN(C(=O)OC(C)(C)C)C4)c3c2)cc1[N+](=O)[O-] | 51 |  |  |
| CC(C)(C)OC(=O)N1CC[C@H](Nc2ncnc3ccc(-c4ccc(OC(F)(F)F)cc4)cc23)C1 | 2 |  |  |
| COc1ccc(-c2ccc3ncnc(N[C@@H]4CCN(C(=O)OC(C)(C)C)C4)c3c2)cn1 | 0 |  |  |
| C=CC(=O)N1CC[C@H](Nc2ncnc3ccc(-c4ccc(OC)nc4)cc23)C1 | 0 |  |  |
| CC[C@H](Nc1ncnc2[nH]cnc12)c1nc2cccc(F)c2c(=O)n1-c1ccccc1 [IDELALISIB] | 96 |  | AUC [15]: 422 ng·h/mL; Cmax [16]: 129 ng/mL; IC50 (Raji): 9.95 µM; IC50 (SU-DHL-6): 0.65 µM; IC50 (RPMI-8226): 5.49 µM; bioavailability [17]: 39%; IC50 (Ramos): > 10 µM |
| COc1ccc(-c2ccc3ncnc(N[C@H]4CCN(C(=O)Cc5ccccc5)C4)c3c2)cn1 | 79 |  |  |
| COc1ncc(-c2ccc3ncnc(N[C@H]4CCN(C(=O)C5CC5)C4)c3c2)cc1C#N | 97 | 0.0055 |  |
